According to PubChem BioAssay (NCI):
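How tested: cells in 96-well plates exposed to compound for 48 hours at five concentrations. The concentration for full growth arrest is given as TGI.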

Legend:
Assay in all cases: growth of human tumour cells (NCI), 48 h
RXF 393 renal = test system: RXF 393 renal
U251 CNS = test system: U251 CNS
SK-OV-3 ovarian = test system: SK-OV-3 ovarian
DMS 273 small cell lung = test system: DMS 273 small cell lung
HOP-92 NSCLC = test system: HOP-92 NSCLC
COLO 205 colon = test system: COLO 205 colon
UACC-62 melanoma = test system: UACC-62 melanoma
KM20L2 colon = test system: KM20L2 colon
HCT-15 colon = test system: HCT-15 colon
SK-MEL-5 melanoma = test system: SK-MEL-5 melanoma
MALME-3M melanoma = test system: MALME-3M melanoma
XF 498 CNS = test system: XF 498 CNS
HCC-2998 colon = test system: HCC-2998 colon
ACHN renal = test system: ACHN renal
KM12 colon = test system: KM12 colon
CAKI-1 renal = test system: CAKI-1 renal
SNB-78 CNS = test system: SNB-78 CNS
LOX IMVI melanoma = test system: LOX IMVI melanoma
SNB-75 CNS = test system: SNB-75 CNS
HOP-18 NSCLC = test system: HOP-18 NSCLC
UACC-257 melanoma = test system: UACC-257 melanoma
DLD-1 colon = test system: DLD-1 colon
NCI-H23 lung = test system: NCI-H23 lung
SF-295 CNS = test system: SF-295 CNS
HL-60(TB) leukemia = test system: HL-60(TB) leukemia
UO-31 renal = test system: UO-31 renal
786-0 renal = test system: 786-0 renal
OVCAR-4 ovarian = test system: OVCAR-4 ovarian
IGROV1 ovarian = test system: IGROV1 ovarian
SW-620 colon = test system: SW-620 colon
M14 melanoma = test system: M14 melanoma
EKVX NSCLC = test system: EKVX NSCLC
SN12C renal = test system: SN12C renal
OVCAR-8 ovarian = test system: OVCAR-8 ovarian
SK-MEL-28 melanoma = test system: SK-MEL-28 melanoma
NCI-H226 lung = test system: NCI-H226 lung
CCRF-CEM leukemia = test system: CCRF-CEM leukemia
A549 NSCLC = test system: A549 NSCLC
RPMI-8226 leukemia = test system: RPMI-8226 leukemia
A498 renal = test system: A498 renal
SK-MEL-2 melanoma = test system: SK-MEL-2 melanoma
SF-268 CNS = test system: SF-268 CNS
TK-10 renal = test system: TK-10 renal
K-562 leukemia = test system: K-562 leukemia
NCI-H460 lung = test system: NCI-H460 lung
OVCAR-3 ovarian = test system: OVCAR-3 ovarian
MOLT-4 leukemia = test system: MOLT-4 leukemia
M19-MEL melanoma = test system: M19-MEL melanoma
DMS 114 small cell lung = test system: DMS 114 small cell lung
SNB-19 CNS = test system: SNB-19 CNS
HT29 colon = test system: HT29 colon
OVCAR-5 ovarian = test system: OVCAR-5 ovarian
HCT-116 colon = test system: HCT-116 colon
SF-539 CNS = test system: SF-539 CNS
HOP-62 NSCLC = test system: HOP-62 NSCLC
SR leukemia = test system: SR leukemia
NCI-H522 lung = test system: NCI-H522 lung
LXFL 529 NSCLC = test system: LXFL 529 NSCLC

Structure (SMILES): COc1ccc(S(=O)(=O)N/N=C\c2cc([N+](=O)[O-])cc(I)c2O)c(OC)c1OC
- TGI (RXF 393 renal): 54.6 µM
- TGI (U251 CNS): 66 µM
- TGI (SK-OV-3 ovarian): 64 µM
- TGI (DMS 273 small cell lung): > 100 µM
- TGI (HOP-92 NSCLC): 37 µM
- TGI (COLO 205 colon): 45 µM
- TGI (UACC-62 melanoma): 45.4 µM
- TGI (KM20L2 colon): > 100 µM
- TGI (HCT-15 colon): 55.8 µM
- TGI (SK-MEL-5 melanoma): 45.5 µM
- TGI (MALME-3M melanoma): 85.2 µM
- TGI (XF 498 CNS): 48 µM
- TGI (HCC-2998 colon): 86.8 µM
- TGI (ACHN renal): 92.1 µM
- TGI (KM12 colon): > 100 µM
- TGI (CAKI-1 renal): 67.4 µM
- TGI (SNB-78 CNS): 74 µM
- TGI (LOX IMVI melanoma): 92.4 µM
- TGI (SNB-75 CNS): 70.1 µM
- TGI (HOP-18 NSCLC): 63.5 µM
- TGI (UACC-257 melanoma): 75.5 µM
- TGI (DLD-1 colon): 95.1 µM
- TGI (NCI-H23 lung): 67.1 µM
- TGI (SF-295 CNS): > 100 µM
- TGI (HL-60(TB) leukemia): 71.4 µM
- TGI (UO-31 renal): 40.2 µM
- TGI (786-0 renal): 61.4 µM
- TGI (OVCAR-4 ovarian): 72.7 µM
- TGI (IGROV1 ovarian): > 100 µM
- TGI (SW-620 colon): > 100 µM
- TGI (M14 melanoma): 77.6 µM
- TGI (EKVX NSCLC): 80.7 µM
- TGI (SN12C renal): > 100 µM
- TGI (OVCAR-8 ovarian): > 100 µM
- TGI (SK-MEL-28 melanoma): 64.7 µM
- TGI (NCI-H226 lung): 41.9 µM
- TGI (CCRF-CEM leukemia): 59.1 µM
- TGI (A549 NSCLC): > 100 µM
- TGI (RPMI-8226 leukemia): 71.6 µM
- TGI (A498 renal): 83 µM
- TGI (SK-MEL-2 melanoma): 45.3 µM
- TGI (SF-268 CNS): 75 µM
- TGI (TK-10 renal): > 100 µM
- TGI (K-562 leukemia): > 100 µM
- TGI (NCI-H460 lung): > 100 µM
- TGI (OVCAR-3 ovarian): 62.8 µM
- TGI (MOLT-4 leukemia): 64.9 µM
- TGI (M19-MEL melanoma): 87.2 µM
- TGI (DMS 114 small cell lung): 64.6 µM
- TGI (SNB-19 CNS): 76.3 µM
- TGI (HT29 colon): > 100 µM
- TGI (OVCAR-5 ovarian): > 100 µM

Structure (SMILES): COc1ccc(/C=C2\C(=O)N(C(=O)c3ccc(NC(C)=O)cc3)N=C2C)cc1
- TGI (DMS 273 small cell lung): > 100 µM
- TGI (COLO 205 colon): > 100 µM
- TGI (HCT-15 colon): > 100 µM
- TGI (SK-MEL-5 melanoma): > 100 µM
- TGI (MALME-3M melanoma): > 100 µM
- TGI (XF 498 CNS): > 100 µM
- TGI (HCC-2998 colon): > 100 µM
- TGI (ACHN renal): > 100 µM
- TGI (KM12 colon): > 100 µM
- TGI (HCT-116 colon): > 100 µM
- TGI (CAKI-1 renal): > 100 µM
- TGI (SNB-78 CNS): > 100 µM
- TGI (LOX IMVI melanoma): > 100 µM
- TGI (SNB-75 CNS): > 100 µM
- TGI (HOP-18 NSCLC): > 100 µM
- TGI (UACC-257 melanoma): > 100 µM
- TGI (NCI-H23 lung): > 100 µM
- TGI (SF-295 CNS): > 100 µM
- TGI (HL-60(TB) leukemia): > 100 µM
- TGI (UO-31 renal): > 100 µM
- TGI (786-0 renal): > 100 µM
- TGI (OVCAR-4 ovarian): > 100 µM
- TGI (SW-620 colon): > 100 µM
- TGI (M14 melanoma): > 100 µM
- TGI (EKVX NSCLC): > 100 µM
- TGI (SN12C renal): > 100 µM
- TGI (OVCAR-8 ovarian): > 100 µM
- TGI (SK-MEL-28 melanoma): > 100 µM
- TGI (NCI-H226 lung): > 100 µM
- TGI (CCRF-CEM leukemia): > 100 µM
- TGI (A549 NSCLC): > 100 µM
- TGI (RPMI-8226 leukemia): > 100 µM
- TGI (SK-MEL-2 melanoma): > 100 µM
- TGI (SF-268 CNS): > 100 µM
- TGI (SF-539 CNS): > 100 µM
- TGI (TK-10 renal): > 100 µM
- TGI (K-562 leukemia): > 100 µM
- TGI (NCI-H460 lung): > 100 µM
- TGI (OVCAR-3 ovarian): > 100 µM
- TGI (MOLT-4 leukemia): > 100 µM
- TGI (M19-MEL melanoma): > 100 µM
- TGI (HOP-62 NSCLC): > 100 µM
- TGI (DMS 114 small cell lung): > 100 µM
- TGI (SR leukemia): > 100 µM
- TGI (SNB-19 CNS): > 100 µM
- TGI (HT29 colon): > 100 µM
- TGI (NCI-H522 lung): > 100 µM
- TGI (OVCAR-5 ovarian): > 100 µM

Structure (SMILES): Cc1cc(O)c(C(=O)O)c2c1C(=O)c1c(O)c(OCC(O)C(O)C(O)C(O)CO)c(O)c(O)c1C2=O (configuration not stated) (tested in a mixture with another compound)
- TGI (RXF 393 renal): > 100 µM
- TGI (U251 CNS): > 100 µM
- TGI (SK-OV-3 ovarian): > 100 µM
- TGI (HOP-92 NSCLC): > 100 µM
- TGI (COLO 205 colon): > 100 µM
- TGI (UACC-62 melanoma): > 100 µM
- TGI (KM20L2 colon): > 100 µM
- TGI (HCT-15 colon): > 100 µM
- TGI (SK-MEL-5 melanoma): > 100 µM
- TGI (MALME-3M melanoma): > 100 µM
- TGI (XF 498 CNS): > 100 µM
- TGI (HCC-2998 colon): > 100 µM
- TGI (KM12 colon): > 100 µM
- TGI (CAKI-1 renal): > 100 µM
- TGI (SNB-78 CNS): > 100 µM
- TGI (LOX IMVI melanoma): > 100 µM
- TGI (SNB-75 CNS): > 100 µM
- TGI (HOP-18 NSCLC): > 100 µM
- TGI (UACC-257 melanoma): > 100 µM
- TGI (DLD-1 colon): > 100 µM
- TGI (NCI-H23 lung): > 100 µM
- TGI (SF-295 CNS): > 100 µM
- TGI (UO-31 renal): > 100 µM
- TGI (786-0 renal): > 100 µM
- TGI (OVCAR-4 ovarian): > 100 µM
- TGI (IGROV1 ovarian): > 100 µM
- TGI (SW-620 colon): > 100 µM
- TGI (M14 melanoma): > 100 µM
- TGI (EKVX NSCLC): > 100 µM
- TGI (SN12C renal): > 100 µM
- TGI (OVCAR-8 ovarian): > 100 µM
- TGI (SK-MEL-28 melanoma): > 100 µM
- TGI (NCI-H226 lung): > 100 µM
- TGI (CCRF-CEM leukemia): > 100 µM
- TGI (A549 NSCLC): > 100 µM
- TGI (RPMI-8226 leukemia): > 100 µM
- TGI (A498 renal): > 100 µM
- TGI (SK-MEL-2 melanoma): > 100 µM
- TGI (SF-268 CNS): > 100 µM
- TGI (SF-539 CNS): > 100 µM
- TGI (LXFL 529 NSCLC): > 100 µM
- TGI (TK-10 renal): > 100 µM
- TGI (K-562 leukemia): > 100 µM
- TGI (OVCAR-3 ovarian): > 100 µM
- TGI (MOLT-4 leukemia): > 100 µM
- TGI (M19-MEL melanoma): > 100 µM
- TGI (HOP-62 NSCLC): > 100 µM
- TGI (DMS 114 small cell lung): > 100 µM
- TGI (SNB-19 CNS): > 100 µM
- TGI (HT29 colon): > 100 µM
- TGI (NCI-H522 lung): > 100 µM
- TGI (OVCAR-5 ovarian): > 100 µM
